Measurements taken from patent publication US12276654B2, “Chemical probe-dependent evaluation of protein activity and uses thereof” (The University of Chicago, priority 2017, dated 2025).

What was measured:
FAAH = biological target: T1, FAAH (Mus musculus, UniProt O08914); experiment: sADPL in vivo target engagement in mPBMCs after oral gavage, off-target FAAH; conditions: mice, 3 and 80 mg/kg
T1 construct: Then the mPBMCs were acquired from the mouse blood and subjected to family wide probe treatment; from tissue; host or cells: mouse blood PBMCs (mPBMCs)
T1 sequence (O08914 1-579): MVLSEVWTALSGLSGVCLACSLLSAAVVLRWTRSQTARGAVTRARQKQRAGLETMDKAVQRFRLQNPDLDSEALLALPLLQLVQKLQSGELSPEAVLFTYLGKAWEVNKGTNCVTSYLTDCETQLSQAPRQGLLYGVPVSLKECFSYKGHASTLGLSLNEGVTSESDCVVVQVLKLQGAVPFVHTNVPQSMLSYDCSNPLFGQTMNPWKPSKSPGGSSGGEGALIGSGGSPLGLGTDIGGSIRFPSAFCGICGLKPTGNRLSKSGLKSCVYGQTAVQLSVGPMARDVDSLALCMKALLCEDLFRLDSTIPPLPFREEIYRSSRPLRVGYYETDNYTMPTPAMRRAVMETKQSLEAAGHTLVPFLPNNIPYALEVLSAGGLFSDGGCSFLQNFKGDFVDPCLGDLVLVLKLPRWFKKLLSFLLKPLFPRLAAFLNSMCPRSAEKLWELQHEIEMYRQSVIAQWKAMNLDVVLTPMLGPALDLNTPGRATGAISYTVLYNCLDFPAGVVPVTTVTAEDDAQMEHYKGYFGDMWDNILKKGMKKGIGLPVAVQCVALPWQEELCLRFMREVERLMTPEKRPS
Text: FIG. 25. In vivo Target Engagement. The mice were administrated with vehicle (PEG300) or NCEH1 inhibitor JW480 by oral gavage. Then the mPBMCs were acquired from the mouse blood and subjected to family wide probe treatment to profile the in vivo target engagement.
Following the in vitro study, in vivo target engagement was planned. In this experiment, the inventors orally gavaged the mice with vehicle or inhibitors, then collected the mPBMCs for probe treatment and sADPL measurement. Again, first the activity of NCEH1 was tested in mice PBMCs, and good activity was found. The delta Ct is over 7 cycles, which is over 100 fold change.

NCEH1 = biological target: T2, NCEH1 (Homo sapiens, UniProt Q6PIU2); parameters: endogenous NCEH1 activity in SKOV3 cells; endogenous in cells; host or cells: SKOV3; wild-type PC3; PAFAH2-expressing PC3; conditions: previously reported; PC3 cells; read-out: IC50 for NCEH1 previously reported by gel-based profiling; cited from earlier work
T2 sequence (Q6PIU2 1-408): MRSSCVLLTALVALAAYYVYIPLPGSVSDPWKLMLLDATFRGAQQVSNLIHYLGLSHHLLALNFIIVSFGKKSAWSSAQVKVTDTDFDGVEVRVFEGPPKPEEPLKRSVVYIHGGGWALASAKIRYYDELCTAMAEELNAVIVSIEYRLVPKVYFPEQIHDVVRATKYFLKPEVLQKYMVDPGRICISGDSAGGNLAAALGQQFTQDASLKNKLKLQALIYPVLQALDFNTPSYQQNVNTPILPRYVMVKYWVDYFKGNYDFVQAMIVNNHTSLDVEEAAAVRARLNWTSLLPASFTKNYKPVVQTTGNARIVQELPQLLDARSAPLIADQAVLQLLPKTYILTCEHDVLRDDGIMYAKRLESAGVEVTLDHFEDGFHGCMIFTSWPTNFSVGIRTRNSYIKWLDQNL

For `CC(C)c1ccccc1OC(=O)NCCc1ccc2ccccc2c1` [JW480], which “in vivo target engagement of off-target FAAH in mPBMCs” value (FAAH) is on record?
Its value is “no target engagements were observed”.

What about the IC50 (NCEH1) of the same molecule?
Its IC50 is 12 nM.
